Laboratory results reported in ChEMBL document CHEMBL2412992, “Fluorescent ligands for adenosine receptors” (Bioorg Med Chem Lett, 2013).

Molecular target: Uncharacterized protein (Bos taurus, UniProt E1BKU0)
Assay: Displacement of [3H]CGS21680 from adenosine A2A receptor in bovine striatal membranes after 90 mins by liquid scintillation counting analysis
Type: cell membranes, Striatum, Membrane

Chain of Uncharacterized protein (E1BKU0 whole entry): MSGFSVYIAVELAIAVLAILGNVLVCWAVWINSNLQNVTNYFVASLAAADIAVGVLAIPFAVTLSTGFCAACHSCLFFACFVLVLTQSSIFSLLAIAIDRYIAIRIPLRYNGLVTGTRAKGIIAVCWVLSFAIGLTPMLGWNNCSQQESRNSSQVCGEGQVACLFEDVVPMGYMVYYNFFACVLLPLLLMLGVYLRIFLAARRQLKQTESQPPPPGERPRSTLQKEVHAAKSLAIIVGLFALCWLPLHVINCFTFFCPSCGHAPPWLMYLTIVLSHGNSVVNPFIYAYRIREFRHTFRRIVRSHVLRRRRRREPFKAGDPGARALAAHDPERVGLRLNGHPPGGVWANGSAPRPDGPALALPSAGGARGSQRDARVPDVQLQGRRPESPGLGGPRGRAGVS

SMILES: CCNC(=O)[C@H]1O[C@@H](n2cnc3c(N)nc(NCCc4ccc(CCC(=O)NCCNC(=S)Nc5ccc(C6c7ccc(O)cc7OC7=CC(=O)C=CC76)c(C(=O)O)c5)cc4)nc32)[C@H](O)[C@@H]1O (stereo partly specified)
- Ki: 0.0112 µM
